As a reminder, the melting point is the temperature, or range, at which the solid turns liquid.

Where only a bound is given, the exact number is not on record here.

This passage reports melting point results from a melting point compilation (Tetko et al.; mined from patent text by program, amines drawn as free bases though some values may be those of a salt).

In turn, `COCCOc1ccc(/C=C/C(=O)NS(=O)(=O)c2cccc(Cl)c2)c(Oc2ncc(C(F)(F)F)cc2Cl)c1` showed a melting point of 157 to 158 °C. Next, `CCCCCC(=O)NCCCSc1ccncc1`: 48 to 49 °C. Turning to `CCCCn1c(=O)c2nn(S(=O)(=O)c3cc(Cl)c(Cl)s3)cc2n(CCCC)c1=O`, the melting point was in the range of 163 to 166 °C. On to `CC(C)(C)OC(=O)N1CCC(CCN2C(=O)C3(COc4cc5c(cc43)OCO5)c3ccccc32)CC1` (centres undefined), for which the melting point fell in the range of 173 to 175 °C. As to `Cc1ccc(NC(=O)N2C(=O)C3(CCCCC3)NC23CCCCC3)cc1`, the melting point lay within 136 to 138 °C. For the molecule `CCC(Cc1c(I)cc(I)c(NC(=O)CNCCNCCN)c1I)C(=O)O` (centres undefined), the melting point came out at 185 °C. `O=C(O)C(Cl)=C(Cl)C(=O)O` yielded a melting point of 107 to 110 °C. Next, `CC(=O)Oc1ccc(OCc2ccccc2)cc1CC(Br)CBr` (racemic): 72 to 74 °C. The result for `CC(C)(C)S(=O)(=O)c1ccc(C(=O)O)c(Cl)c1` reads 181 to 182 °C; that for `Cc1ccc2nc(CCl)nc(Cl)c2c1`, 111 to 112 °C. Consider `O=C1Nc2cccc(F)c2C(=O)N2CC[C@@H]12`, for which the melting point was in the range of 232 to 234 °C. The result for `Nc1ccc(Nc2c(NCC3CCCO3)cc(C(=O)O)cc2S(N)(=O)=O)cc1` (centres undefined) reads 253 °C; that for `COc1ccc(NC(NC(c2ccc(CC(C)(C)C)s2)C2CCCCC2)=C2C(=O)OC(C)(C)OC2=O)c(OC)c1` (centres undefined), 143 to 145 °C. The result for `CCN(CCSCc1[nH]cnc1C)C(=N)NC#N` reads 118 to 120 °C; that for `O=C(O)C1c2ccccc2COc2ccccc21` (centres undefined), 200 to 201 °C; that for `CCCN(C(=S)NC(=O)c1ccccc1)C(CO)c1ccccc1` (centres undefined), 82 °C. The result for `CCN(C(=O)CC(OC)(C(F)(F)F)C(F)(F)F)c1cn(-c2cccnc2)nc1C` reads 83 to 86 °C; that for `COC(=N)Nc1ccc(C(F)(F)F)cc1`, 121 to 123 °C. Molecule `Cc1ccc(-c2ccccc2C(=O)Nc2ccc(C(=O)N(CCO)c3ccccc3C)cc2)cc1` registered a melting point of 115 to 118 °C. Take `Cc1nc(-c2ccc(C(F)(F)F)cc2)sc1COc1ccc(CC(=O)O)cc1`: the melting point fell in the range of 149 to 150 °C. Next, `N#CC(Oc1nsnc(Cl)c1=O)c1cccc(Oc2ccccc2)c1` (centres undefined): 146 to 148 °C; `Cc1cc2ncc(C(=O)O)c(N(C)S(=O)(=O)c3ccc(Oc4ccncc4)cc3)n2n1`: 246 to 248 °C; `Cc1ccc(CC(C)(C)C(=O)C=CN(C)C)cc1`: 74 to 76 °C.

`O=C(O)CCc1cc2cc(Cl)ccc2n1S(=O)(=O)c1cccc2ccccc12` returned a melting point of 165 to 175 °C. The result for `FCCCCNc1cn(-c2cccnc2)nc1Cl` reads 82 to 83 °C; that for `COc1ccc(S(=O)(=O)N(CCN2CCC(C(=O)c3ccc(F)cc3)CC2)c2cccc(OC)c2)cc1`, 129 to 132 °C. Next, `CC(=C1SC(=O)NC1=O)c1cccc(OCCOc2c(-c3ccc(F)c(F)c3)n(C)c3ccccc3c2=O)c1`: 236 to 240 °C; `COC(=O)C(C)(C)CCCN1CCN(C(=O)C=Cc2ccccc2)CC1`: 76 °C; `CCSc1ccc(NC(=S)NC(=O)OC)c(N)c1`: 168 °C. The result for `Cc1onc(-c2ccccc2)c1-c1ccccc1` reads 95.5 to 96.2 °C; that for `Cc1cccc2c3c(n(Cc4ccccc4)c12)CCCC3=O`, 165 to 166 °C. `COc1cc(F)c2ncc(F)cc2c1`: the melting point was 122 °C. Next, `COc1ccc(S(=O)(=O)N2C(=O)C(c3ccccc3O)(N3CCC[C@H]3C(=O)N(C)C)c3cc(Cl)ccc32)c(OC)c1` (some centres undefined): 143 °C; `CCn1cc(C(=O)O)c(=O)cc1-c1cc(OC)c(OC)c(OC)c1`: 200 to 201 °C. Next, `COCCONC(=O)c1nc(-c2ccc(Cl)c(OC)c2F)cc(N)c1Cl`: 155 to 157 °C; `CN(C(=O)c1ccc2nonc2c1)[C@H]1CC[C@H](n2ncnn2)CC1`: 172 to 175 °C; `COc1ccc(Br)cc1CC#N`: 60.5 to 60.9 °C. `c1csc(-c2cnc(COc3ccc(CCCn4ccnc4)cc3)s2)c1` gave a melting point of 82 to 84 °C. The result for `CC(C)c1ccc(-n2ccn(-c3cccc(C(=O)O)c3)c2=O)cc1` reads 283 to 285 °C; that for `O=S(=O)(NC(=S)NC1CCCCC1)c1cnccc1NC1CCCCCC1`, 195 to 197 °C; that for `Cc1nc2c(O[C@@H]3c4ccccc4C[C@H]3O)cc(C(=O)O)cn2c1C` (relative stereo), 229 to 231 °C. In the case of `O=C(O)c1c(C(F)(F)F)nn(-c2c(Cl)cc(C(F)(F)F)cc2Cl)c1C(F)(F)F`, the melting point was 185 to 190 °C.

For `CCN1CCCCC1CNS(=O)(=O)c1ccc(Nc2ccnc3cc(Cl)ccc23)cc1` (centres undefined), the melting point lay within 203 to 205 °C. `CCCN1CC(c2cccc(O)c2)CC1C` (centres undefined) gave a melting point of 123 to 124 °C. Next, `COc1ccc(C2=NN(C3CCN(C(=O)CN4C(=O)c5ccccc5C4=O)CC3)C(=O)C(C)(C)C2)cc1OC`: 193 to 194 °C; `COc1cc(OC)cc(N2CCN(C(=O)Nc3cc(C(C)O)c(C)nc3OC)CC2)c1` (centres undefined): 124 to 126 °C; `COC(=O)[C@@H]1CN(C(=O)OCc2ccccc2)C[C@H]1c1ccc(OC)c(OC2CCCC2)c1` (relative stereo): 85 °C.

Molecule `CCOC(=O)C1C(=O)C=C(OC(C)OCC)CC1c1ccc(C)cc1` (centres undefined) had a melting point of 59 to 60 °C. `COc1cccc(Oc2c(NS(=O)(=O)c3ccc(C(C)(C)C)cc3)nc(C)nc2OCCO)c1` came in with a melting point of 139 °C.

`Nc1ccc(C(=S)OC2CCCCC2)c(Cl)c1` gave a melting point of 97 to 100 °C.

The molecule `CCOC(Oc1cc(Cl)cc(Cl)c1)C(=O)O` (centres undefined) gave a melting point of 83.5 to 86.5 °C.

Consider `CNc1nc(C(C)c2ccc(-c3ccc(F)cc3)c(F)c2)c(C(=O)O)s1` (centres undefined), for which the melting point fell in the range of 195 to 196 °C. `CC(=O)COc1ccc2c(C)cc(=O)oc2c1` came in with a melting point of 146 to 148 °C.

As for `CC(C)c1ccc(-c2ncc(-c3cccc(C(=O)O)c3)s2)cc1`, the melting point was in the range of 237 to 239 °C. `Cc1cc(C(=O)/C=C/C(=O)O)c(C)o1` registered a melting point of 144 to 147 °C. In the case of `Nc1cc(=O)[nH]c2ccccc12`, the melting point was more than 250 °C. The result for `CCCC(=O)c1cnc2nc(C)c(OCC)cc2c1O` reads 240 to 241 °C. The molecule `NCCn1c(-c2ccc(Br)cc2)csc1=Nc1ccccc1` yielded a melting point of 58 to 61 °C.

On to `CS(=O)(=O)N1CC=C(c2ccc3cnc(Nc4ccc(N5CCOCC5)cc4)nn23)CC1`, for which the melting point was 238 to 240 °C. As to `COC(=O)[C@H](c1ccccc1Cl)N1CCc2sc(OC(=O)c3ccccc3)cc2C1`, the melting point was 84 to 86 °C.

Molecule `O=C(N(Cc1cccs1)CC1CCCCC1)C12CC3CC(CC(C3)C1)C2` displayed a melting point of 112 to 116 °C. Next, `COc1ccc(OC)c2c1C(C)(C)CCC2(C)C`: 195 °C; `Cc1csc(C)c1N(Cn1cccn1)C(=O)CCl`: 88 to 89 °C. The result for `O=C(O)Cc1c(C(=O)c2ccccc2)[nH]c2cccc(Cl)c12` reads 206 to 209 °C. Next, `CC(=O)COc1ccc(N2N=C3c4ccccc4SCC3CC2=O)cc1` (centres undefined): 177 to 180 °C; `COc1ccc(C(C)CN2C=CC=C3C2=Nc2cc(OC)ccc2S(=O)(=O)N3C)cc1` (centres undefined): 128 to 131 °C; `COc1cc(C(C)=O)ccc1OCCCN1CCC(c2nsc3ccccc23)CC1`: 93 to 95 °C. In the case of `Cc1cc(N2CCC=C(C(N)=O)C2)c2cccc(-c3ccc(Cl)cc3Cl)c2n1`, the melting point is 230 to 232 °C. Next, `O=C(NCCCCCCCCCCCCO)OC1CCN(C(=O)Oc2ccc(Oc3ccccc3)cc2)CC1`: 75 to 76 °C; `CCN(c1ccc(Cl)cc1C(O)c1ccccc1Cl)S(=O)(=O)c1ccc(OC)c(OC)c1` (centres undefined): 154 °C; `CN1CCN(C(=O)c2ccccc2)C1=C(Sc1ccccc1)[N+](=O)[O-]`: 175 to 178 °C.

`COc1cc(-c2cc(C)no2)cc2oc(=O)c(C)c(C)c12` had a melting point of 148 to 150 °C. The result for `O=Cc1ccc(OC(F)F)c2oc3ccc([N+](=O)[O-])cc3c12` reads 245 to 248 °C; that for `O=C1C(Cl)=C(c2ccccc2)C1(F)F`, 77.5 to 78 °C. As for `COCOCC#Cc1nc(-c2ccc(=O)n(C(C)C)n2)c(-c2ccccc2)nc1N`, the melting point lay in the range of 133 to 135 °C. Next, `COc1ccc(C(=O)P2(=O)Oc3ccccc3-c3ccccc32)c(OC)c1` (centres undefined): 112 to 115 °C.

As for `O=C(CCl)Nc1cc(C(=O)O)cc(OCc2ccccc2)c1C(=O)c1ccccc1`, the melting point lay in the range of 214 to 216 °C.

Regarding `O=C(CF)Cc1ccc(Cl)cc1Cl`, the melting point lay in the range of 48 to 52 °C. Next, `CCOC(=O)C(O)CCn1cnc2c(=O)[nH]c(N)nc21` (centres undefined): 161 to 163 °C; `COC(=O)c1cc(N)c(C)s1`: 90 to 91 °C. The result for `CCn1ncc2c(O)c(CCc3ccccc3)c(C)nc21` reads 251 to 256 °C; that for `O=C(O)CCCc1ccc(-c2ccc(Cl)cc2)cc1`, 187 to 190 °C; that for `CCOC(=O)c1c(C2CC2)nn(CC)c1Cc1ccc(-c2ccccc2-c2nnn(C(c3ccccc3)(c3ccccc3)c3ccccc3)n2)cc1`, 164 to 168 °C. Consider `CC(=O)OC1=CC2=CCC3C4CC(C)C(O)(CC(=O)OC(=O)C(C)(C)C)C4(C)CC4OC43C2(C)C=C1` (centres undefined), for which the melting point is 108 to 120 °C. The result for `Cc1oc(-c2ccccc2)nc1CCOc1ccc(CC2SC(=O)NC2=O)c2sccc12` (centres undefined) reads 196 to 197 °C; that for `CC(C)(C)c1cc(N2C=NC(NC(=N)N)S2)cc(C(C)(C)C)c1O` (centres undefined), 276 °C; that for `CCCn1nc2c(NC)nc3ccccc3c2c1N`, 200 to 201 °C.

In turn, `Cc1nn2c(C(F)(F)F)cc(-c3cccc(C(F)(F)F)c3)nc2c1C#N` displayed a melting point of 215 °C. `CS(=O)(=O)OCc1nc2ccc(F)cc2s1` returned a melting point of 68 to 72 °C.
